According to ChEMBL document CHEMBL1201862, “PubChem BioAssay data set” (2004):
Active and inactive are the calls of the source.

Experiments:
[1] = inhibitors of firefly luciferase expression or activity, dose response, H4 neuroglioma cells, luminescence (AID 1990); assay type: functional, cell-based
[2] = Luminescence Cell-Based Dose Response HTS to Identify Inhibitors of 5'UTR Stem-Loop Driven Prion Protein mRNA Translation in H4 Neuroglioblastoma Cells. [Related pubchem assays: 1827 (Project Summary), 1813 (Primary HTS)]; assay type: functional
[3] = inhibitors of SNCA 5'UTR-driven reporter translation, confirmation, H4 neuroglioma cells, luminescence (AID 1988); assay type: functional, cell-based
[4] = Shn3 3'UTR reporter inhibitors, dose response, cell-based, Clone20 osteoblasts, firefly luciferase, cherry-picked (AID 624132); assay type: functional;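 also: firefly luciferase luminescence from reporter carrying the Shn3 3'UTR in osteoblasts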
[5] = molecular target: T1, Carboxy-terminal domain RNA polymerase II polypeptide A small phosphatase 1 (Homo sapiens, UniProt Q9GZU7); assay: inhibitors of CTDSP1, concentration-response testing, biochemical assay, absorbance-based, actives from ultra-high-throughput screening (AID 540297); assay type: functional
T1 sequence (Q9GZU7 whole entry): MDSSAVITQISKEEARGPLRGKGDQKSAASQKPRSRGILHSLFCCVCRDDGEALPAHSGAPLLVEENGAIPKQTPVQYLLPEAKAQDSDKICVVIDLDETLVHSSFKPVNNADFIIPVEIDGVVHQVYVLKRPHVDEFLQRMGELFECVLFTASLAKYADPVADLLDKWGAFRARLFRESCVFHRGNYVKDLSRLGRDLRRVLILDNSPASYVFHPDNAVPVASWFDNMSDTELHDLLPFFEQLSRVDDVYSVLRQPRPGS

[6] = growth suppression of PTEN-null colon cells, dose response, cell-based, HCT116 PTEN knockout (AID 1047); assay type: functional;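 also: HCT116 colon tumor cells with PTEN knocked out; cells exposed to compound for 60 hours before readout; potency for loss of cell viability measured by luminescence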
[7] = growth suppression of beta-catenin-knockout colon cells, dose response, cell-based, HCT116, human colon tumor (AID 1045); assay type: functional;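 also: HCT116 colon tumor cells with beta catenin knocked out; cells exposed to compound for 60 hours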
[8] = tested on: Streptococcus sp. 'group A'; assay: growth inhibition of control SK(-) GAS strain, dose response, counter-screen for streptokinase expression inhibitor project, luminescence, kanamycin, BacTiterGlo, confirmation (AID 1900); assay type: functional, organism-based
[9] = tested on: Streptococcus; assay: Group A Streptococcus viability loss, dose response, counter-screen for streptokinase expression inhibitor project, luminescence, BacTiterGlo (AID 1915); assay type: functional, organism-based;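 also: potency for reduction of bacterial viability or growth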
[10] = cells; assay type: functional
[11] = Luminescence Cell-Based Dose Confirmation HTS to Identify Activators of 5'UTR Stem-Loop Driven Alpha-Synuclein mRNA Translation in H4 Neuroglioblastoma Cells. [Related pubchem assays: 1829 (Project Summary), 1814 (Primary HTS)]; assay type: functional
[12] = Luminescence Cell-Based Dose Response HTS to Identify Activators of Luciferase Translation or Activity in H4 […] Cells. [Related pubchem assays: 1829 (Project Summary), 1814 (Primary HTS)]; assay type: functional
[13] = tested on: H4; assay: Luminescence Cell-Based Dose Response HTS to Identify Activators of 5'UTR Stem-Loop Driven Prion Protein mRNA Translation in H4 Neuroglioblastoma Cells. [Related pubchem assays: 1829 (Project Summary), 1814 (Primary HTS)]; assay type: functional; conditions: Homo sapiens
[14] = molecular target: Cytochrome P450 2D6 (Homo sapiens, UniProt P10635);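 also: CYP2D6 member of a cytochrome P450 panel assay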
[15] = molecular target: T2, Cytochrome P450 1A2 (Homo sapiens, UniProt P05177);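 also: PubChem cytochrome P450 panel assay, CYP1A2 panel member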
T2 sequence (P05177 whole entry): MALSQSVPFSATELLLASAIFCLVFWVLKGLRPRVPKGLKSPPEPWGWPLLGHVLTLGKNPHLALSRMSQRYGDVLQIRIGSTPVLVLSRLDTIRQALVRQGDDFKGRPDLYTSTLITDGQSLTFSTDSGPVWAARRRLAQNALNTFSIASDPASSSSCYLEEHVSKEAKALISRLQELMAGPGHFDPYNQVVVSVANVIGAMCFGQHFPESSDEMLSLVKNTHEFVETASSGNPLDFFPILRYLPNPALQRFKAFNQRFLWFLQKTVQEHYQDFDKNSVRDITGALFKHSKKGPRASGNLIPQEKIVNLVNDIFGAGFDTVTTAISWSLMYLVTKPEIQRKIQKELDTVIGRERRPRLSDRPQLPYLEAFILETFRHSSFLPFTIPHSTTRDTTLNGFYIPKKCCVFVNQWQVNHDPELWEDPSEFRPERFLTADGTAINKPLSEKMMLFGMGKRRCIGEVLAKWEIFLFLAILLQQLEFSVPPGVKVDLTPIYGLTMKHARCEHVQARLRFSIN

[16] = molecular target: Cytochrome P450 3A4 (Homo sapiens, UniProt P08684);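 also: CYP3A4 tested as one member of a cytochrome P450 panel screen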
[17] = molecular target: Cytochrome P450 2C9 (Homo sapiens, UniProt P11712)
[18] = molecular target: T3, Polyadenylate-binding protein 1 (Homo sapiens, UniProt P11940); assay: PABP1 MLLE–PAM2 interaction inhibitors, dose response, miRNA deadenylation inhibitor project, biochemical, fluorescence polarization, Cy5-PAM2 peptide, secondary (AID 602260); assay type: functional; conditions: read-out: IC50_Mean
[19] = molecular target: T3, Polyadenylate-binding protein 1; assay: PABP1 MLLE–PAM2 binding inhibitor potency, dose response, biochemical, fluorescence polarization, FITC-PAM2 peptide (AID 602259); assay type: functional; conditions: read-out: IC50_Mean
[20] = molecular target: T4, Heat shock factor protein 1 (Mus musculus, UniProt P38532); assay: inhibition of MG132-induced HSE-luciferase signal, confirmation, cell-based, NIH3T3, luminescence, dose retest (AID 2382); assay type: functional;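 also: NIH3T3 fibroblasts with HSF1-driven luciferase reporter stressed by proteasome inhibitor MG132; luminescence from HSF1-driven luciferase expression after 8 hours of MG132 stress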
T4 sequence (P38532 whole entry): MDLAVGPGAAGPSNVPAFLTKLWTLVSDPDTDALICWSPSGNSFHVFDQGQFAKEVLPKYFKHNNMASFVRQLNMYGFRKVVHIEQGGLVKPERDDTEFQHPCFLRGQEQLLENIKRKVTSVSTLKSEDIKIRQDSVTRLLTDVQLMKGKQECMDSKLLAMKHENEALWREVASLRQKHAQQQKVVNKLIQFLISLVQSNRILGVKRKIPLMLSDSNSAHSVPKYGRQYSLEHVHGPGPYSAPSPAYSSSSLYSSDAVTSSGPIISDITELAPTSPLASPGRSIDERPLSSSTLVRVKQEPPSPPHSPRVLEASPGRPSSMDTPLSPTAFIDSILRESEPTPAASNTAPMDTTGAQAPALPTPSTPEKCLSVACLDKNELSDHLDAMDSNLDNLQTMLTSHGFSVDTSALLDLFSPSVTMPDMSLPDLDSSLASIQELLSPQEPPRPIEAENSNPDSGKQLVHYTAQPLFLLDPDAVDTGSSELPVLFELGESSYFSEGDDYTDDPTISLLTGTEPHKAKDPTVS

[21] = molecular target: Cytochrome P450 2C19 (Homo sapiens, UniProt P33261); assay: Cytochrome panel assay with activity outcomes. Panel member name: p450-cyp2c19 Compounds with AC50 equal or less than 10 uM are considered active; assay type: functional; conditions: read-out: AC50
Chain of Cytochrome P450 2C19 (P33261 whole entry): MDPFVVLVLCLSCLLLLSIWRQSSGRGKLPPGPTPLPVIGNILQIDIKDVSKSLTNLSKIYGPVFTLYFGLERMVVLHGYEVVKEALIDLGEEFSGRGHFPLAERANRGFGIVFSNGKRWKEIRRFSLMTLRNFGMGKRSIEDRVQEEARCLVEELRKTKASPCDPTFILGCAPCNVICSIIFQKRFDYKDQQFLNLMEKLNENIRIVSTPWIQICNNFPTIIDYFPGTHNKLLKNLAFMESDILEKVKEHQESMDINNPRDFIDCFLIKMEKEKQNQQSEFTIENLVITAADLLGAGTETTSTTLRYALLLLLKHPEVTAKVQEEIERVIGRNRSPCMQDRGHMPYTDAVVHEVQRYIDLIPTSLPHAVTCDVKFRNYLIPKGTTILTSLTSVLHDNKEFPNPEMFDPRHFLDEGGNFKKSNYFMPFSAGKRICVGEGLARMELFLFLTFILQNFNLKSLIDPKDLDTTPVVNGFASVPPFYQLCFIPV

Chain of Cytochrome P450 3A4 (P08684 whole entry): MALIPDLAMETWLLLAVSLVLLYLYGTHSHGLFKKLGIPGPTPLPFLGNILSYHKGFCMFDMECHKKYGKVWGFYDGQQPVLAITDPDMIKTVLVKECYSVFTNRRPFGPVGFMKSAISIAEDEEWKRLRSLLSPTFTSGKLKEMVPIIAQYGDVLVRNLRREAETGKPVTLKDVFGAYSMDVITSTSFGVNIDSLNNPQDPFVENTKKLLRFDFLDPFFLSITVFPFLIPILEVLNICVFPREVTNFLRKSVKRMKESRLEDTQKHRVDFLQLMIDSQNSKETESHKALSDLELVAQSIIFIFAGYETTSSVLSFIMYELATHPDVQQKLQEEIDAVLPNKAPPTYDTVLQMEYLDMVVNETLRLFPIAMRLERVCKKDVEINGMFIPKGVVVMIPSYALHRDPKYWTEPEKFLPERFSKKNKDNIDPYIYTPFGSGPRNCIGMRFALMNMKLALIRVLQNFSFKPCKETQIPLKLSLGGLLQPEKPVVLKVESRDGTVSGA
T3 sequence (P11940 whole entry): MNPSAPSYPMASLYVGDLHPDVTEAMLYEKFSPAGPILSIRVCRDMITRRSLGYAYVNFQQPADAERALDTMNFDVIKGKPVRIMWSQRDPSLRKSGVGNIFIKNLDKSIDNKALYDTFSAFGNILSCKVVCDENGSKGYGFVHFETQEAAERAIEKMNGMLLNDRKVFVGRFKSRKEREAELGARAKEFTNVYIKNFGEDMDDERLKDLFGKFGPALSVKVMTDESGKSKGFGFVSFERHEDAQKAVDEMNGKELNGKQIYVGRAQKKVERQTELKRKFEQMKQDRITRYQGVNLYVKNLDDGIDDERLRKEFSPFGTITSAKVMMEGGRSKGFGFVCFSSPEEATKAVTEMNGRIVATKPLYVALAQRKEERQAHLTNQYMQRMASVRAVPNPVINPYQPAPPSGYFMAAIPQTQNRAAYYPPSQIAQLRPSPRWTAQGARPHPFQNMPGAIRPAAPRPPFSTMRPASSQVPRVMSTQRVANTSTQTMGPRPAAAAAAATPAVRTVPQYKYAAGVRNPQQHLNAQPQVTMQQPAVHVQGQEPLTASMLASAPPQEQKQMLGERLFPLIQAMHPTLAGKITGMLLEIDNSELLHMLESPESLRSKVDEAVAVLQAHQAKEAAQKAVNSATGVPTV
Chain of Cytochrome P450 2C9 (P11712 whole entry): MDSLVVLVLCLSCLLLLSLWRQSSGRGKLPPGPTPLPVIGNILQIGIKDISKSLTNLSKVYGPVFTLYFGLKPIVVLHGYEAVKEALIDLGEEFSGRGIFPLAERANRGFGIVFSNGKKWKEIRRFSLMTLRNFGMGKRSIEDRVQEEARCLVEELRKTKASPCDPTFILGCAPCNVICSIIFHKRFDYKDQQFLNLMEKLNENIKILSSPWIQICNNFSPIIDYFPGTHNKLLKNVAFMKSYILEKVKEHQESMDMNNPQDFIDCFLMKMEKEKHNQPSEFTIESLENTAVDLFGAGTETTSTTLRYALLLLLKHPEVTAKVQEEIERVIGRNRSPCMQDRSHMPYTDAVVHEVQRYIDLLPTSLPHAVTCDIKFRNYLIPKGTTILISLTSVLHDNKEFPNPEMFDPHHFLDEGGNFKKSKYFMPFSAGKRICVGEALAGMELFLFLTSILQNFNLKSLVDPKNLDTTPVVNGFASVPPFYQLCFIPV
Chain of Cytochrome P450 2D6 (P10635 whole entry): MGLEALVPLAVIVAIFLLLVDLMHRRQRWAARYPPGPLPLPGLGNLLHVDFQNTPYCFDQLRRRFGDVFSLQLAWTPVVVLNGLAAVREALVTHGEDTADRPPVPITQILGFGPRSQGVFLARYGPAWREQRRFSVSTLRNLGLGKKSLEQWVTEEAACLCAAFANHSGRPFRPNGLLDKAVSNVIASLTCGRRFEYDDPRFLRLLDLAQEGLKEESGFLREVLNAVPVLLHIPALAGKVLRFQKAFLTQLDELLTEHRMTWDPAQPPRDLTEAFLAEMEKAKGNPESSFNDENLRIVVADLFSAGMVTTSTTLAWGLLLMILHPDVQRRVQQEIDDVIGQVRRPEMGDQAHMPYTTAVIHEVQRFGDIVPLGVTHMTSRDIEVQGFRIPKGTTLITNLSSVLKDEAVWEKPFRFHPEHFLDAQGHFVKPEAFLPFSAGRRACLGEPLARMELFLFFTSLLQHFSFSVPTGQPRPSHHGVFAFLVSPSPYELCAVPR

With `Cc1ccc(NC(=O)C2C3CCCC2C3c2ccccc2)c(C)c1` (configuration not stated) the EC50 [1] was > 120 µM (not active), the EC50 [2] was > 120 µM (not active) and the EC50 [3] was > 120 µM (not active).
For `O=C(NCCNc1ccc([N+](=O)[O-])cc1Cl)c1ccccc1F`, the EC50 [1] was > 120 µM (not active), the EC50 [2] was 26.4 µM (active) and the EC50 [3] was 76.3 µM (active).
In the case of `CCN(CC)C(=O)[C@H]1C[C@H](CC(=O)NC/C=C(\C)CCC=C(C)C)C(=O)N2CCc3c([nH]c4cc(CCC(=O)N(C)C)ccc34)[C@]12C`, the AC50 [4] was 1.37 µM (active).
With `O=C1C=C(O)c2cccc(O)c2C1=O` the IC50 [5] was 44.5 µM (active).
With `COC(=O)c1c(NC(=O)c2ccc(S(=O)(=O)N3CCOCC3)cc2)sc2c1CCN(C)C2` the EC50 [6] was 23.8 µM (active) and the EC50 [7] was 14.9 µM (active).
In the case of `O=C1N=C(Nc2ccccn2)SC1Cc1ccc(Cl)cc1` (configuration not stated), the EC50 [8] was 83.8 µM (active), the EC50 [9] was > 150 µM (not active) and the IC50 [10] was > 25 µM (active).
With `CCOC(=O)c1cnn(-c2ccc(C(C)C)cc2)c1NC(=O)C1CCC1` the EC50 [11] was 13.4 µM (active), the EC50 [12] was 18.9 µM (active) and the EC50 [13] was > 120 µM (not active). The AC50 [14] was 8.91 µM (inconclusive), the AC50 [15] was 14.1 µM (inconclusive) and the AC50 [16] was 39.8 µM (inconclusive). For the same compound, the AC50 [17] was 39.8 µM (inconclusive).
In the case of `Cc1cc(NC(=O)CSc2sc3c(O)cc(=O)[nH]c3c2C#N)ccc1Br`, the IC50 [5] was 3.74 µM (active).
For `CCOC(=O)c1c(NC(=O)C2(C)Cc3ccccc3C(=O)O2)sc2c1CCCC2` (configuration not stated), the IC50 [18] was > 66 µM (inactive) and the IC50 [19] was > 66 µM (inactive).
In the case of `CCCOC(=O)c1ccc(NC(=O)c2ccccc2OC)cc1`, the IC50 [10] was 11.3 µM (active).
In the case of `Cc1nn(C(C)(C)C)c(OC(=O)c2ccco2)c1Sc1ccccc1`, the AC50 [15] was 14.1 µM (inconclusive) and the AC50 [16] was 39.8 µM (inconclusive).
For `CCOC(=O)c1cc(-c2ccccc2)nc2nc(N3CCCCC3)sc12`, the EC50 [1] was 14.8 µM (active), the EC50 [2] was 24.3 µM (active) and the EC50 [3] was 103 µM (active).
For `CCCC(=O)Nc1cccc(-c2nc3ccccc3c(=O)o2)c1`, the IC50 [10] was 10.4 µM (active).
For `Cc1onc(-c2c(F)cccc2Cl)c1C(=O)NC(=S)Nc1c(C)n(C)n(-c2ccccc2)c1=O`, the IC50 [18] was > 66 µM (inactive) and the IC50 [19] was > 66 µM (inactive).
In the case of `S=C(c1ccc(N2CCOCC2)cc1)N1CCOCC1`, the EC50 [20] was > 195 µM (not active), the IC50 [18] was > 66 µM (inactive) and the IC50 [19] was > 66 µM (inactive).
In the case of `CC1CC(C)CN(C(=O)CNS(=O)(=O)c2ccc(Br)s2)C1` (configuration not stated), the AC50 [15] was 15.8 µM (inconclusive), the AC50 [16] was 11.2 µM (inconclusive) and the AC50 [17] was 10 µM (inconclusive).
With `C#CCN1C(=O)C(O)(CC(=O)c2cccc(OC)c2)c2ccccc21` (configuration not stated) the EC50 [6] was 19.2 µM (active) and the EC50 [7] was 19.3 µM (active).
For `Cc1noc(C)c1-c1cncnc1NCCN1CCOCC1`, the AC50 [21] was 0.0398 µM (inconclusive) and the AC50 [15] was 31.6 µM (inconclusive).
In the case of `O=c1c(-c2ccccc2)nc2cnc(N3CCOCC3)nc2n1CCc1ccccc1`, the AC50 [15] was 12.6 µM (inconclusive) and the AC50 [16] was 31.6 µM (inconclusive).
For `CCOC(=O)c1cc(COc2cc(Cl)cc(Cl)c2)on1`, the IC50 [10] was 1.97 µM (active).
For `O=C(CSC1=NC2(CCCCC2)N=C1c1ccccc1)Nc1ccc2c(c1)OCCO2`, the IC50 [18] was > 66 µM (inactive) and the IC50 [19] was > 66 µM (inactive).
